Reference: EP0373658A2, “Use of quinoline derivatives in treating cancer” (priority 1988, dated 1990)

Legend:
serum prolactin = test: lowering basal serum prolactin levels in the male rat (prolactin secretion inhibition); type: in vivo
Excerpt: Many of the above mentioned compounds are published as prolactin secretion inhibitors, some of which are extremely potent and have long lasting activity. The potency of the compounds as prolactin secretion inhibitors can be determined in standard tests, e.g. by lowering basal serum prolactin levels in the male rat.

operable breast cancer = test: Clinical trial II: antiproliferative effect in operable breast cancer; type: in vivo, women; details: oral, 20 days, 50 to 200 ug/day/p.o.; compound A 25 µg/day days 0 to 3, 50 µg/day days 4 to 6, 75 µg/day until day 20
Excerpt: 24 to 36 women with operable breast cancer, aged less than 70 years, in whom a positive biopsy cut has been obtained at the first clinic visit are selected. The patients are not be taking any chronic medication which is known to influence serum prolactin levels. The trial is effected on a randomized double blind basis. All patients are to have baseline evaluations before beginning treatment.
The women are given an oral dose of a COMPOUND OF THE INVEN-TION or placebo for 20 days, starting on day 0. They are operated on day 10 with either breast conservation or modified radical mastectomy. Prolactin levels in plasma are measured on days 0, 6, 10, 13 and 20. Histological evaluations are performed on days 1 and 10.

[1] = 52 week toxicology studies in rats; type: in vivo; details: oral doses, 0.20 mg/kg/day
[2] = system: 5-HT sensitive adenylate cyclase of the liver fluke; test: activation of 5-HT sensitive adenylate cyclase of the liver fluke (method of R. Markstein); type: biochemical; details: adenylate cyclase stimulated by serotonin
Excerpt: A group of compounds comprises compounds which are D₂ agonists without any antagonistic activity. Another group of compounds includes those compounds which are serotonin agonists, e.g. as indicated in standard in vitro binding tests and by activation of 5-HT sensitive adenylate cyclase of the liver fluke according to the method of R.Markstein, Neurochemical Effects of Some Ergot Derivatives: A Basis for their Antiparkinson Actions. J. Neural transm 51:39, (1981).
Examples of such compounds include compound C and pergolide. Compound C, pergolide and 5-HT agonists have efficacies of 90, 80, and 100 respectively and pD₂ [10g EC₅₀] of 6.9, 6.9 and 7.7 respectively in this test on adenylate cyclase stimulated by serotonin.

SMILES | ID₅₀ mg/kg after 4 hours (serum prolactin) | mitotic rate (operable breast cancer) | toxic effects [1] | efficacies [2] | pD₂ [10g EC₅₀] [2]
CN1C[C@@H](NS(=O)(=O)N(C)C)C[C@@H]2c3cccc4c3c(cn4C)C[C@H]21 [B, 1,6-dimethyl-8α-(N,N-dimethylsulphamoylamino)-ergoline-I] | 0.003 mg/kg |  |  |  | 
CCCN1CC(NS(=O)(=O)N(CC)CC)CC2Cc3c(O)cccc3CC21 (stereo not drawn) [Compound A, N,N-diethyl-N′-[(3α,4aα,10aβ)-1,2,3,4,4a,5,10,10a-octahydro-6-hydroxy-1-propyl-3-benzo[g]-quinolinyl] sulfamide] | 0.03 mg/kg | satisfactory results indicative of a reduced mitotic rate | no toxic effects are observed |  | 
CCCN1C[C@@H](NS(=O)(=O)N(CC)CC)C[C@@H]2c3cccc4[nH]cc(c34)C[C@H]21 [Compound C, 6-n-propyl-8α-(N,N-diethylsulphamoylamino)-ergoline-I] | 0.001 mg/kg |  |  | 90 | 6.9
CCCN1C[C@H](CSC)C[C@@H]2c3cccc4[nH]cc(c34)C[C@H]21 [pergolide, 6-n-propyl-8α-methylmercaptomethyl-ergoline-I, reference compound] |  |  |  | 80 | 6.9
